This note sets out measurements from patent US9815796B2 (Merck Sharp & Dohme Corp., priority 2013, dated 2017).

Sequence of Rhesus PDE2A3 (B3VTJ2 1-941): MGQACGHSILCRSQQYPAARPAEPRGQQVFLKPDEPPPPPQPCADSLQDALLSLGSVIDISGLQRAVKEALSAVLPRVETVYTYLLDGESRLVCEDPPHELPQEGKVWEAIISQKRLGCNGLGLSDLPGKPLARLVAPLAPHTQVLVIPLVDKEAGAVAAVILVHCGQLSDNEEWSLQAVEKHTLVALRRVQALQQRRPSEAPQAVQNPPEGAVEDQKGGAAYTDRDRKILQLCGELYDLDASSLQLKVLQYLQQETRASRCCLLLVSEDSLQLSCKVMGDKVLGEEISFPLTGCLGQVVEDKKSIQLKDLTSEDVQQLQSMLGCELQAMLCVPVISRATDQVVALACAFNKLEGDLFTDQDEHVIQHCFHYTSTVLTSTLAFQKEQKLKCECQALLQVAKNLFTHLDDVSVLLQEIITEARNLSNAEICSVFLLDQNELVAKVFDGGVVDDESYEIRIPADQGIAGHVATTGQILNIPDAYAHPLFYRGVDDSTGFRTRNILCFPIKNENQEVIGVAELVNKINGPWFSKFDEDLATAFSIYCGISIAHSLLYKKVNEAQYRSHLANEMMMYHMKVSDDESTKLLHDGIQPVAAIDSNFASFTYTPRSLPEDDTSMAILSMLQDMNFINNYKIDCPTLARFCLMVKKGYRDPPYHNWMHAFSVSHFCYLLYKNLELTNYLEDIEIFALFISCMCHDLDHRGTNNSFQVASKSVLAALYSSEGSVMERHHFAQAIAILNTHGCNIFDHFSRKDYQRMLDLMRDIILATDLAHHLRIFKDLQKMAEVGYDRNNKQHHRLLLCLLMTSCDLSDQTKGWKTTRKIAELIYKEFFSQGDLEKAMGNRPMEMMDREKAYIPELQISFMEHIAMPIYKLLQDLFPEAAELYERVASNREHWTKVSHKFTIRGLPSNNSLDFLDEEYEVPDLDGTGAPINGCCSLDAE

The first assay concerns the target Rhesus PDE2A3 (Macaca mulatta, UniProt B3VTJ2). Description: PDE2 fluorescence polarization (IMAP FP) inhibition assay, rhesus enzyme. The class given is biochemical, rhesus macaque. To be noted: Rhesus PDE2, Lab A, at 1 uM. How it is done: The activity of the compounds in accordance with the present invention as PDE2 inhibitors may be readily determined using a fluorescence polarization (FP) methodology (Huang, W., et al., J. Biomol Screen, 2002, 7: 215).
In a typical experiment the PDE2 inhibitory activity of the compounds of the present invention was determined in accordance with the following experimental method. Rhesus PDE2A3 was amplified from rhesus macaque brain cDNA (Biochain Institute, Hayward, Calif.) using primers based on human PDE2A sequence (accession NM_002599.3) where the forward primer containing a Kozak consensus was 5′-[…]-3′ and the reverse primer was 5′-[…]-3′. Amplification with Easy-A High-Fidelity PCR cloning enzyme (Stratagene, La Jolla, Calif.) was 95° C. for 2 minutes followed by thirty three cycles of 95° C. for 40 seconds, 52° C. for 30 seconds, and 72° C. for 2 minutes 48 seconds. Final extension was 72° C. for 7 minutes. The PCR product was TA cloned into pcDNA3.3-TOPO (Invitrogen, Carlsbad, Calif.) according to standard protocol. A consensus sequence was developed from multiple clones and then deposited into GenBank (EU812167). AD293 cells (Stratagene, La Jolla, Calif.) with 70-80% confluency were transiently transfected with rhesus PDE2A3/pcDNA3.3-TOPO using Lipofectamine 2000 according to manufacturer specifications (Invitrogen, Carlsbad, Calif.). Cells were harvested 48 hours post-transfection and lysed by sonication (setting 3, 10×5 sec pulses) in a buffer containing 20 mM HEPES pH 7.4, 1 mM EDTA and Complete Protease Inhibitor Cocktail Tablets (Roche, Indianapolis, Ind.). Lysate was collected by centrifugation at 75,000×g for 20 minutes at 4° C. and supernatant utilized for evaluation of PDE2 activity. The fluorescence polarization assay for cyclic nucleotide phosphodiesterases was performed using an IMAP® FP kit supplied by Molecular Devices, Sunnyvale, Calif. (product # R8139). […] Assays were performed at room temperature in 384-well microtiter plates with an incubation volume of 20.2 μL. Solutions of test compounds were prepared in DMSO and serially diluted with DMSO to yield 8 μL of each of 10 solutions differing by 3-fold in concentration, at 32 serial dilutions per plate. […] 0% of inhibition is determined by using DMSO (1% final concentrations).
A Labcyte Echo 555 (Labcyte, Sunnyvale, Calif.) is used to dispense 200 nL from each well of the titration plate to the 384 well assay plate. Ten microliters of a solution of enzyme (1/2000 final dilution from aliquots; sufficient to produce 20% substrate conversion) was added to the assay plate. Next 10 uL of a separate solution of the substrate FAM-labeled cAMP (50 nM final concentration product # R7506 from Molecular Devices) and the activator cGMP (1 uM final concentration), prepared in the assay buffer (10 mM Tris HCl, pH 7.2, 10 mM MgCl2, 0.05% NaN3 0.01% Tween-20, and 1 mM DTT) was added to the assay plate and shaken to mix. The reaction is allowed to proceed at room temperature for 60 minutes. A binding solution is then made from the kit components, comprised of 80% Solution A, 20% Solution B and binding reagent at a volume of 1/600 the total binding solution. The enzymatic reaction is stopped by addition of 60 μL of the binding solution to each well of the assay plates and the plates are sealed and shaken for 30 seconds. The plate was incubated at room temperature for at least one hour prior to determining the fluorescence polarization (FP). The parallel and perpendicular fluorescence of each well of the plate was measured using a Tecan Genios Pro plate reader (Tecan, Switzerland) or Perkin Elmer EnVision™ plate reader (Waltham, Mass.). Fluorescence polarization (mP) was calculated from the parallel (S) and perpendicular (P) fluorescence of each sample well and the analogous values for the median control well, containing only substrate (So and Po), using the following equation: Polarization (mP)=1000*(S/So−P/Po)/(S/So+P/Po).
For orientation: Polarisation of emitted light reports the rotation of a fluorescent probe.
For `C[C@@H](NC(=O)c1cc(=O)[nH]c(-c2ccccc2)n1)c1cccc2ccccc12` [Example 354, N-[(1R)-1-naphthalen-1-ylethyl]-6-oxo-2-phenyl-1,6-dihydropyrimidine-4-carboxamide], the “Rhesus PDE2 % inh. at 1 uM - Lab A” value came out at 42 % inh.

The assay is the same for the next values; noted with them: Rhesus PDE2, Lab A, at 1 uM; read-out: Rhesus PDE2 % inh. at 1 uM - Lab A.
In the case of `CC(C)(C)c1ccc(CCNC(=O)c2cc(=O)[nH]c(-c3ccccc3)n2)cc1` [Example 375, N-[2-(4-tert-butylphenyl)ethyl]-6-oxo-2-phenyl-1,6-dihydropyrimidine-4-carboxamide], the inhibition at 1 µM was found to be 46%.

The assay is the same for the next values; noted with them: Rhesus PDE2, Lab A; read-out: Rhesus PDE2 Ki (nM) - Lab A.
On to `Cc1cc(C(F)(F)F)ccc1C(C)NC(=O)c1cc(=O)[nH]c(C2CC2)n1` (stereo not drawn) [Example 208], for which the Ki (usually a dissociation constant, usually derived from enzyme kinetics or from competition with a known ligand) stood at 291 nM.

Regarding `Cc1nc(C(=O)N[C@H](C)c2ccc(-c3cccnc3)cc2)cc(=O)[nH]1` [Example 320, 2-methyl-6-oxo-N-[(1R)-1-(4-pyridin-3-ylphenyl)ethyl]-1,6-dihydropyrimidine-4-carboxamide], the Ki was determined as 1700 nM.

On to `Cc1nc(C(=O)N[C@H](C)c2ccc(C(F)(F)F)c3ccccc23)cc(=O)[nH]1` [Example 28, 2-methyl-6-oxo-N-{(1R)-1-[4-(trifluoromethyl)naphthalen-1-yl]ethyl}-1,6-dihydropyrimidine-4-carboxamide], for which the Ki is 3490 nM.

Take `CC(C)(NC(=O)c1cc(=O)[nH]c(-c2ncccn2)n1)c1ccc(OC(F)(F)F)cc1` [Example 289, N-{1-methyl-1-[4-(trifluoromethoxy)phenyl]ethyl}-6-oxo-1,6-dihydro-2,2′-bipyrimidine-4-carboxamide]: the Ki came out at 2320 nM.

`COc1cc(C(F)(F)F)ccc1[C@@H](C)NC(=O)c1cc(=O)[nH]c(-c2ccccc2)n1` [Example 188, N-{(1R)-1-[2-methoxy-4-(trifluoromethyl)phenyl]ethyl}-6-oxo-2-phenyl-1,6-dihydropyrimidine-4-carboxamide]: the Ki amounted to 1010 nM.

As to `CC(NC(=O)c1cc(=O)[nH]c(C2CC2)n1)c1ccccc1C(F)(F)F` (stereo not drawn) [Example 220, 2-cyclopropyl-6-oxo-N-{1-[2-(trifluoromethyl)phenyl]ethyl}-1,6-dihydropyrimidine-4-carboxamide], the Ki amounted to 10700 nM.

As to `O=C(NCc1c(Cl)cc(C(F)(F)F)cc1Cl)c1cc(=O)[nH]c(C2CC2)n1` [Example 239, 2-cyclopropyl-N-[2,6-dichloro-4-(trifluoromethyl)benzyl]-6-oxo-1,6-dihydropyrimidine-4-carboxamide], the Ki is 3070 nM.

As to `C[C@H](c1ccc(C(F)(F)F)cc1)N(C)C(=O)c1cc(=O)[nH]c(C2CC2)n1` [Example 209], the Ki is 17400 nM.

Regarding `COc1ccc([C@@H](C)NC(=O)c2cc(=O)[nH]c(-c3ncccn3)n2)c(OC)c1` [Example 88, N-[(1R)-1-(2,4-dimethoxyphenyl)ethyl]-6-oxo-1,6-dihydro-2,2′-bipyrimidine-4-carboxamide], the Ki was determined as 2360 nM.

On to `Cc1nc(C(=O)NCc2ccc(C(F)(F)F)cc2C)cc(=O)[nH]1` [Example 23, 2-methyl-N-[2-methyl-4-(trifluoromethyl)benzyl]-6-oxo-1,6-dihydropyrimidine-4-carboxamide], for which the Ki came to 3920 nM.

In the case of `CC(C)(C)c1ccc(CCNC(=O)c2cc(=O)[nH]c(-c3ccccc3)n2)cc1` [Example 375, N-[2-(4-tert-butylphenyl)ethyl]-6-oxo-2-phenyl-1,6-dihydropyrimidine-4-carboxamide], the Ki turned out to be 1000 nM.

Consider `Cc1nc(C(=O)NC(c2ccc(F)cc2)c2ccc(C(F)(F)F)cc2)cc(=O)[nH]1` (stereo not drawn) [Example 130, N-{(4-fluorophenyl)[4-(trifluoromethyl)phenyl]methyl}-2-methyl-6-oxo-1,6-dihydropyrimidine-4-carboxamide], for which the Ki is 715 nM.

As to `Cc1cc(-c2ccc([C@@H](C)NC(=O)c3cc(=O)[nH]c(C)n3)cc2)ccn1` [Example 319, 2-methyl-N-{(1R)-1-[4-(2-methylpyridin-4-yl)phenyl]ethyl}-6-oxo-1,6-dihydropyrimidine-4-carboxamide], the Ki was found to be 1490 nM.

With `Cc1nc(C(=O)NC(CO)c2ccc(C(F)(F)F)cc2)cc(=O)[nH]1` (single isomer, unassigned) [Example 311, (S)- or (R)-N-{2-hydroxy-1-[4-(trifluoromethyl)phenyl]ethyl}-2-methyl-6-oxo-1,6-dihydropyrimidine-4-carboxamide], the Ki stood at 9120 nM.

`CC(C)[C@@H](NC(=O)c1cc(=O)[nH]c(-c2ncccn2)n1)c1ccc(SC(F)(F)F)cc1` [Example 97, N-[(1R)-2-methyl-1-{4-[(trifluoromethyl)sulfanyl]phenyl}propyl]-6-oxo-1,6-dihydro-2,2′-bipyrimidine-4-carboxamide]: the Ki was 1.5 nM.

In the case of `C[C@@H](NC(=O)c1cc(=O)[nH]c(-c2ccccc2)n1)c1cccc2ccccc12` [Example 354, N-[(1R)-1-naphthalen-1-ylethyl]-6-oxo-2-phenyl-1,6-dihydropyrimidine-4-carboxamide], the Ki is over 1000 nM.

`COc1cc(C(F)(F)F)ccc1[C@H](C)NC(=O)c1cc(=O)[nH]c(C2CC2)n1` [Example 223, 2-cyclopropyl-N-{(1S)-1-[2-methoxy-4-(trifluoromethyl)phenyl]ethyl}-6-oxo-1,6-dihydropyrimidine-4-carboxamide]: the Ki stood at 1020 nM.

`COC(=O)c1ccc(C(C)(C)NC(=O)c2cc(=O)[nH]c(-c3ccccc3)n2)cc1` [Example 160, methyl 4-(1-methyl-1-{[(6-oxo-2-phenyl-1,6-dihydropyrimidin-4-yl)carbonyl]amino}ethyl)benzoate]: the Ki amounted to 826 nM.

With `CC(C)(NC(=O)c1cc(=O)[nH]c(-c2ccccc2)n1)c1ccc(F)c(F)c1` [Example 344, N-[1-(3,4-difluorophenyl)-1-methylethyl]-6-oxo-2-phenyl-1,6-dihydropyrimidine-4-carboxamide], the Ki is about 449 nM.

The same assay, now with this note: Rhesus PDE2, Lab B; read-out: Rhesus PDE2 Ki (nM) - Lab B.
On to `Cc1nc(C(=O)N[C@@H](c2ccc(C(F)(F)F)c([N+](=O)[O-])c2)C(C)(C)C)cc(=O)[nH]1` [Example 531, N-{(1R)-2,2-dimethyl-1-[3-nitro-4-(trifluoromethyl)phenyl]propyl}-2-methyl-6-oxo-1,6-dihydropyrimidine-4-carboxamide], for which the Ki was determined as 32 nM.

`COC(=O)C(NC(=O)c1cc(=O)[nH]c(-c2ccccc2)n1)c1ccc(C(F)(F)F)cc1` (stereo not drawn) [Example 406, methyl {[(6-oxo-2-phenyl-1,6-dihydropyrimidin-4-yl)carbonyl]amino}[4-(trifluoromethyl)phenyl]acetate]: the Ki is 226 nM.

For the compound `Cc1nc(C(=O)NC(C)(c2ccc(S(F)(F)(F)(F)F)cc2)C(C)C)cc(=O)[nH]1` (single isomer, unassigned) [Example 662, (S)- or (R)-N-{1,2-dimethyl-1-[4-(pentafluoro-λ^6-sulfanyl)phenyl]propyl}-2-methyl-6-oxo-1,6-dihydropyrimidine-4-carboxamide], the Ki was about 1220 nM.

For the compound `CC(C)(C)c1ccc(CCNC(=O)c2cc(=O)[nH]c(-c3ccccc3)n2)cc1` [Example 375, N-[2-(4-tert-butylphenyl)ethyl]-6-oxo-2-phenyl-1,6-dihydropyrimidine-4-carboxamide], the Ki was found to be 2040 nM.

On to `C[C@@H](NC(=O)c1cc(=O)[nH]c(-c2ccccc2)n1)c1ccc([N+](=O)[O-])cc1` [Example 459, N-[(1R)-1-(4-nitrophenyl)ethyl]-6-oxo-2-phenyl-1,6-dihydropyrimidine-4-carboxamide], for which the Ki amounted to 224 nM.

Consider `CC(NC(=O)c1cc(=O)[nH]c(-c2ccccc2)n1)c1cccc(OC(F)(F)F)c1` (stereo not drawn) [Example 422, 6-oxo-2-phenyl-N-{1-[3-(trifluoromethoxy)phenyl]ethyl}-1,6-dihydropyrimidine-4-carboxamide], for which the Ki was determined as 1840 nM.

For the compound `C[C@@H](NC(=O)c1cc(=O)[nH]c(-c2ccccc2)n1)c1cccc2ccccc12` [Example 354, N-[(1R)-1-naphthalen-1-ylethyl]-6-oxo-2-phenyl-1,6-dihydropyrimidine-4-carboxamide], the Ki was found to be 2800 nM.

With `O=C(NC1(c2ccccc2OC(F)(F)F)CC1)c1cc(=O)[nH]c(-c2ccccc2)n1` [Example 380, 6-oxo-2-phenyl-N-{1-[2-(trifluoromethoxy)phenyl]cyclopropyl}-1,6-dihydropyrimidine-4-carboxamide], the Ki turned out to be 353 nM.

Turning to `CC(C)(NC(=O)c1cc(=O)[nH]c(-c2ccccc2)n1)c1ccc(F)c(F)c1` [Example 344, N-[1-(3,4-difluorophenyl)-1-methylethyl]-6-oxo-2-phenyl-1,6-dihydropyrimidine-4-carboxamide], the Ki is 681 nM.
